# Biological target: T1, ATM (Homo sapiens, UniProt Q13315)
# T1 construct: detecting phosphorylation of Chk2 in a human non-small cell lung cancer cell line NCI-H460 (ATCC company); host or cells: NCI-H460 human non-small cell lung cancer cells
# Experiment: ATM inhibition test (phosphorylation of Chk2 generated by ionizing radiation, AlphaScreen SureFire)
# Format: cell-based
# Settings: phosphorylated Chk2 in NCI-H460 cells, ionizing radiation 8Gy, 1 hour after test compound treatment; read-out: ATM inhibitory activity
# Summary of the method: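 Human NCI-H460 lung cancer cells were treated with compound for 1 h, then irradiated at 8Gy and incubated 1 h at 37° C. Phospho-Chk2 was quantified by AlphaScreen SureFire; inhibition % was normalised between irradiated untreated and non-irradiated untreated wells.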
# T1 sequence (Q13315 whole entry): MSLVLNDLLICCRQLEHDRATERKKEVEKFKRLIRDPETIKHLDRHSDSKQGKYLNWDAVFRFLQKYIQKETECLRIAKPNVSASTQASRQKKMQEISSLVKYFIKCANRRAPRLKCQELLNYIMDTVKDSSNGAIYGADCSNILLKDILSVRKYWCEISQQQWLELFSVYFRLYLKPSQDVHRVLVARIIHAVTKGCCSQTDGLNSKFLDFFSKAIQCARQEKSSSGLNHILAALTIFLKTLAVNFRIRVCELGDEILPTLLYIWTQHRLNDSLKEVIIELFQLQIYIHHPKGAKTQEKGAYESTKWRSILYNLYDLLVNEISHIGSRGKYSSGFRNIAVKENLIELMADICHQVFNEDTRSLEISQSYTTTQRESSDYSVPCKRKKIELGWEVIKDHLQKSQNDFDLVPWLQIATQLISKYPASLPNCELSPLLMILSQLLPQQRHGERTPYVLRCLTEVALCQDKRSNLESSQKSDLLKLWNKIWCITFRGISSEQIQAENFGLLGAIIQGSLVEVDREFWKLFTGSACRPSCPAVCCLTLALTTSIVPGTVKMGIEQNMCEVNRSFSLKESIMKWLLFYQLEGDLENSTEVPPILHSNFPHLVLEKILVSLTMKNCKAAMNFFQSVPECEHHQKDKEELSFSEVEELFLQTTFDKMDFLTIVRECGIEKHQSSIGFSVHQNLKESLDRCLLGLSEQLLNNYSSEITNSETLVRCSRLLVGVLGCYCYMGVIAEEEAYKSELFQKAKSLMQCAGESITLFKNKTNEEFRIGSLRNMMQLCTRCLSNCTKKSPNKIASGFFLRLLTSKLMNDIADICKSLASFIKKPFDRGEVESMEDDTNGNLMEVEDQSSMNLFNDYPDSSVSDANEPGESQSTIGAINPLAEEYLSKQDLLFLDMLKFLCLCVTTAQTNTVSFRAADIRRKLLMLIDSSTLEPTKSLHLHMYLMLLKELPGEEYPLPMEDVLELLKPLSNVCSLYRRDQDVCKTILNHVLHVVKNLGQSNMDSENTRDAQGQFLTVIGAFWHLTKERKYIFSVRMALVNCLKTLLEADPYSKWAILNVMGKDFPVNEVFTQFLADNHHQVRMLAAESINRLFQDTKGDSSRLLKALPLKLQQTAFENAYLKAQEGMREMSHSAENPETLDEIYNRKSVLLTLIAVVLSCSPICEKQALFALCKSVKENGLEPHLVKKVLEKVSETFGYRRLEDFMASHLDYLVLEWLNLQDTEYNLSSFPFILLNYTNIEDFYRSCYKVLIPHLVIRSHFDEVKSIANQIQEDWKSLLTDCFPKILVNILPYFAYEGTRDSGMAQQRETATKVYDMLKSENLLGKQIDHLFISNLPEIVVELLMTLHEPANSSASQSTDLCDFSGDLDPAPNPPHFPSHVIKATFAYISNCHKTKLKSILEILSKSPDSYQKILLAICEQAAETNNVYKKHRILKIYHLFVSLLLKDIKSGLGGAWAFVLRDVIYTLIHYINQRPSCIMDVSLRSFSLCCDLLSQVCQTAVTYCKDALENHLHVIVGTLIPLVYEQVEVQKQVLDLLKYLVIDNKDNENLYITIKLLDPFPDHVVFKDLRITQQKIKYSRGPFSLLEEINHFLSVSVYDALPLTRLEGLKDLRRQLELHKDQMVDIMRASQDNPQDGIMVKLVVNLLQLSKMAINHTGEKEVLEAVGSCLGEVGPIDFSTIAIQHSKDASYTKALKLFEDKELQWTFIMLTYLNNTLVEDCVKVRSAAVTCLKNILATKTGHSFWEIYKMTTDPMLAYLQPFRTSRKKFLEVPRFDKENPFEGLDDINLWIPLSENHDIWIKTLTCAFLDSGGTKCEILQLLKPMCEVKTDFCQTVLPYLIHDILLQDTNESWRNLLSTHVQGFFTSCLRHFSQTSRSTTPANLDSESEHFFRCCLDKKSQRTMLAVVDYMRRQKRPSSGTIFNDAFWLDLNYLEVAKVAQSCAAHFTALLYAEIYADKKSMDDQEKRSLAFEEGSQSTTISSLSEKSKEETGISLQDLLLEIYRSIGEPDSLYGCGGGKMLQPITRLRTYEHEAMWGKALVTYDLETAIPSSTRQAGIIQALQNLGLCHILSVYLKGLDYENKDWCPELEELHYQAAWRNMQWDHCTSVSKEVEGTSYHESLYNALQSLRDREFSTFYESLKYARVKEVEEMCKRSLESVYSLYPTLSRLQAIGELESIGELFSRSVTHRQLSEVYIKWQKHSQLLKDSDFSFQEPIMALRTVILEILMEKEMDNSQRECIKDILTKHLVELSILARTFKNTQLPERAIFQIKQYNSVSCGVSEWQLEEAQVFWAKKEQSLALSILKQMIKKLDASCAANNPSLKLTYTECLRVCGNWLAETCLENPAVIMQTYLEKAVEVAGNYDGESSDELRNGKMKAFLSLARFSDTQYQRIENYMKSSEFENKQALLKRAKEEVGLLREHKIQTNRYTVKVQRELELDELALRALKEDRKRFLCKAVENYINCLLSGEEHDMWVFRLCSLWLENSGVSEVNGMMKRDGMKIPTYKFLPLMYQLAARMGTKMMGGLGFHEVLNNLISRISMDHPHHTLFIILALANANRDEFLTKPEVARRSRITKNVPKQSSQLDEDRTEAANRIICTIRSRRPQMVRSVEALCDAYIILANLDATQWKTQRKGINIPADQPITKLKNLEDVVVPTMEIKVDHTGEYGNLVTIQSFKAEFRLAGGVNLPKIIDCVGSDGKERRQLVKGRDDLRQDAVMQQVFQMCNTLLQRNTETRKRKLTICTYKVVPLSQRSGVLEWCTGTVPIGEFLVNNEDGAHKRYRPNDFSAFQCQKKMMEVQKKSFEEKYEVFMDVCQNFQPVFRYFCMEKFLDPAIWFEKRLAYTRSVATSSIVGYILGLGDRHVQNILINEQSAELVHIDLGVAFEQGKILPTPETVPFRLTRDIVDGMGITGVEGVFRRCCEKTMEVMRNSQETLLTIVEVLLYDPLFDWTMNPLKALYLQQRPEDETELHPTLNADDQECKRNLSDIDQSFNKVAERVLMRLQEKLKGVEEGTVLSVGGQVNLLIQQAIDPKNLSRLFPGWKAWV
row,IC50 [µM],Structure (SMILES)
1,0.1 to 0.5,"CCNc1cccc(CNc2ccc3c(c2)Cc2cccc(-c4cc(N5CCOCC5)cc(=O)[nH]4)c2O3)n1 [Example 2-6-2, 6-(7-(((6-(Ethylamino)pyridin-2-yl)methyl)amino)-9H-xanthen-4-yl)-4-morpholinopyridin-2(1H)-one]"
2,0.1 to 0.5,"O=c1cc(N2CCOCC2)cc(-c2cccc3c2Sc2ccc(NC4CCCCC4N4CCOCC4)cc2S3)[nH]1 (stereo not shown) [Example 1-16-2, 4-Morpholino-6-(7-((2-morpholinocyclohexyl)amino)thianthren-1-yl)pyridin-2(1H)-one]"
3,< 0.1,"Cc1ccc(C(Nc2ccc3c(c2)Sc2cccc(-c4cc(N5CCOCC5)cc(=O)[nH]4)c2S3)[C@H]2CCCN2C)nc1 (single isomer, unassigned) [Example 1-56-5]"
4,0.1 to 0.5,"CC(CCNc1ccc2c(c1)Sc1cccc(-c3cc(N4CCOCC4)cc(=O)[nH]3)c1S2)N1CCOCC1 (stereo not shown) [Example 8-2, 4-Morpholino-6-(7-((3-morpholinobutyl)amino)thianthren-1-yl)pyridin-2(1H)-one]"
5,0.1 to 0.5,"N#Cc1ccc(CNc2ccc3c(c2)Cc2ccnc(-c4cc(N5CCOCC5)cc(=O)[nH]4)c2O3)s1 [Example 2-41-17, 5-(((1-(4-Morpholino-6-oxo-1,6-dihydropyridin-2-yl)-5H-chromeno[2,3-c]pyridin-7-yl)amino)methyl)thiophene-2-carbonitrile]"
6,0.1 to 0.5,"CN(C)c1ncc(CNc2ccc3c(c2)Sc2cccc(-c4cc(N5CCOCC5)cc(=O)[nH]4)c2O3)cn1 [Example 4-4-5, 6-(8-(((2-(Dimethylamino)pyrimidin-5-yl)methyl)amino)phenoxathiin-4-yl)-4-morpholino pyridin-2 (1H)-one]"
7,0.5 to 2,"O=c1cc(N2CCOCC2)cc(-c2cccc3c2Oc2ccc(NCc4ncccn4)cc2C3)[nH]1 [Example 2-3-4, 4-Morpholino-6-(7-((pyrimidin-2-ylmethyl)amino)-9H-xanthen-4-yl) pyridin-2(1H)-one]"
8,0.1 to 0.5,"CC(Nc1ccc2c(c1)Cc1cccc(-c3cc(N4CCOCC4)cc(=O)[nH]3)c1O2)c1nccc(CF)n1 (single isomer, unassigned) [Example 2-14-94-2, 6-(7-((1-(4-(fluoromethyl)pyrimidin-2-yl)ethyl)amino)-9H-xanthen-4-yl)-4-morpholinopyridin-2(1H)-one]"
9,0.1 to 0.5,"Cc1cncc(C(C)Nc2ccc3c(c2)Cc2cccc(-c4cc(N5CCOCC5)cc(=O)[nH]4)c2O3)n1 (stereo not shown) [Example 2-14-49, 6-(7-((1-(6-Methylpyrazin-2-yl)ethyl)amino)-9H-xanthen-4-yl)-4-morpholino pyridin-2(1H)-one]"
10,< 0.1,"COC[C@H](CN1CCOCC1)Nc1ccc2c(c1)Sc1cccc(-c3cc(=O)cc(N4CCOCC4)o3)c1S2 [Example 11-3, (S)-2-(7-((1-methoxy-3-morpholinopropan-2-yl)amino)thianthren-1-yl)-6-morpholino-4H-pyran-4-one]"
11,0.1 to 0.5,"O=c1cc(N2CCOCC2)cc(-c2cccc3c2Sc2ccc(NCc4cnccn4)cc2S3)[nH]1 [Example 1-12-42, 4-Morpholino-6-(7-((pyrazin-2-ylmethyl)amino)thianthren-1-yl) pyridin-2(1H)-one]"
12,0.1 to 0.5,"O=c1cc(N2CCOCC2)cc(-c2cccc3c2Oc2ccc(NC4CCN(CCc5ccc(CO)cc5)CC4)cc2C3)[nH]1 [Example 2-30-17, 6-(7-((1-(4-(Hydroxymethyl)phenethyl)piperidin-4-yl)amino)-9H-xanthen-4-yl)-4-morpholino pyridin-2 (1H)-one]"
13,0.1 to 0.5,"CN1CCOc2cc(CNc3ccc4c(c3)Cc3cccc(-c5cc(N6CCOCC6)cc(=O)[nH]5)c3O4)cnc21 [Example 2-2-5, 6-(7-(((4-Methyl-3,4-dihydro-2H-pyrido[3,2-b] [1,4]oxazin-7-yl)methyl)amino)-9H-xanthen-4-yl)-4-morpholino pyridin-2 (1H)-one]"
14,0.1 to 0.5,"O=c1cc(N2CCOCC2)cc(-c2cccc3c2Oc2ccc(NC4CCN(CCc5ccccc5)C4)cc2S3)[nH]1 (stereo not shown) [Example 4-6-1, 4-Morpholino-6-(8-((1-phenethylpyrrolidin-3-yl)amino)phenoxathiin-4-yl)pyridin-2(1H)-one]"
15,0.1 to 0.5,"Cc1ccnc(C(CO)Nc2ccc3c(c2)Cc2cccc(-c4cc(N5CCOCC5)cc(=O)[nH]4)c2O3)c1 (single isomer, unassigned) [Example 2-14-91, 6-(7-((2-hydroxy-1-(4-methylpyridin-2-yl)ethyl)amino)-9H-xanthen-4-yl)-4-morpholinopyridin-2(1H)-one]"
16,0.1 to 0.5,"CC(Nc1ccc2c(c1)Sc1cccc(-c3cc(N4CCOCC4)cc(=O)[nH]3)c1S2)c1ccncn1 (stereo not shown) [Example 1-12-74, 4-Morpholino-6-(7-((1-(pyrimidin-4-yl)ethyl)amino)thianthren-1-yl)pyridin-2 (1H)-one]"
17,< 0.1,"O=c1cc(N2CCOCC2)cc(-c2cccc3c2Sc2ccc(NCCN4CCSCC4)cc2S3)[nH]1 [Example 1-16-4, 4-Morpholino-6-(7-((2-thiomorpholinoethyl)amino)thianthren-1-yl)pyridin-2(1H)-one]"
18,< 0.1,"Cc1cnc(C(CCN(C)C)Nc2ccc3c(c2)Cc2cccc(-c4cc(N5CCOCC5)cc(=O)[nH]4)c2O3)cn1 (single isomer, unassigned) [Example 12-4, 6-(7-((3-(Dimethylamino)-1-(5-methylpyrazin-2-yl)propyl)amino)-9H-xanthen-4-yl)-4-morpholinopyridin-2(1H)-one]"
19,< 0.1,"Cc1ccc(C(Nc2ccc3c(c2)Sc2cccc(-c4cc(N5CCOCC5)cc(=O)[nH]4)c2S3)[C@H]2CCN(C)C2)nc1 (single isomer, unassigned) [Example 1-56-14]"
20,< 0.1,"Cc1ccc(C(Nc2ccc3c(c2)Sc2cccc(-c4cc(N5CCOCC5)cc(=O)[nH]4)c2S3)C2CN(CCO)CCO2)nc1 (racemic) [Example 1-57-2, 6-(7-(((4-(2-Hydroxyethyl)morpholin-2-yl)(5-methylpyridin-2-yl)methyl)amino)thianthren-1-yl)-4-morpholinopyridin-2(1H)-one]"
21,< 0.1,"O=c1cc(N2CCOCC2)cc(-c2cccc3c2Sc2ccc(N[C@@H]4COC[C@H]4N4CCOCC4)cc2S3)[nH]1 (relative stereo) [Example 1-60, Trans-4-morpholino-6-(7-((4-morpholinotetrahydrofuran-3-yl)amino)thianthren-1-yl)pyridin-2(1H)-one]"
22,0.1 to 0.5,"Cc1cc(C(C)Nc2ccc3c(c2)Cc2cccc(-c4cc(N5CCOCC5)cc(=O)[nH]4)c2O3)ccn1 (stereo not shown) [Example 2-14-28, 6-(7-((1-(2-Methylpyridin-4-yl)ethyl)amino)-9H-xanthen-4-yl)-4-morpholino pyridin-2(1H)-one]"
23,0.1 to 0.5,"CC(=O)N1CCC(Nc2ccc3c(c2)Sc2cccc(-c4cc(N5CCOCC5)cc(=O)[nH]4)c2S3)CC1 [Example 1-12-115, 6-(7-((1-Acetylpiperidin-4-yl)amino)thianthren-1-yl)-4-morpholino pyridin-2 (1H)-one]"
24,< 0.1,"Cc1ccc(C(Nc2ccc3c(c2)Sc2cccc(-c4cc(N5CCOCC5)cc(=O)[nH]4)c2S3)[C@@H]2CCCN2C)nc1 (single isomer, unassigned) [Example 1-56-3]"

row,Structure (SMILES),IC50 [µM]
1,"O=c1cc(N2CCOCC2)cc(-c2cccc3c2Sc2ccc(NC(CF)CN4CCOCC4)cc2S3)[nH]1 (single isomer, unassigned) [Example 1-41-1-3, 6-(7-((1-fluoro-3-morpholinopropan-2-yl)amino)thianthren-1-yl)-4-morpholinopyridin-2(1H)-one]",0.1 to 0.5

# — patent publication US9586951B2 (FUJIFILM Corporation, priority 2013, dated 2017)
